Assay results taken from patent publication US20130287918A1, “MICROBICIDAL COMPOSITION” (DUPONT NUTRITION DIOSCIENCES APS, priority 2010, published 2013).

Legend:
[1] = tested on: native flora of Lactic acid bacteria; assay: Salsa sauce fresh challenge study, native lactic acid bacteria on MRS-agar; assay type: cell-based; conditions: for Cell counts on MRS-agar (native Lactic acid bacteria): Salsa sauce 4° C., FP1000-D1 1%, FP1000-D2 1%, MG200 1%, Potassium Sorbate 0.1%
Method: (§1) The viscous products were thoroughly mixed (2 minutes) within 10 minutes of inoculation to ensure that the inoculum was evenly distributed throughout the product. One sample remained un-inoculated and was used as negative control to monitor the native contamination flora. All samples were incubated in the dark at chilled temperature (4° C.) and assayed for yeast, plated on an appropriate yeast medium, until confirmed failure (≧1.0E+06 CFU/g) or until visible mould growth, respectively. In parallel, the growth of lactic acid bacteria and total cell count were monitored on MRS and PCA in all the batches and the non-inoculated blind, respectively.
The Salsa sauces were assayed at time zero, day 3, day 7, day 14 and were plated bi-weekly thereafter until day 92. CFU/g was detected for 3 samples from each batch inoculated with yeast. Before each sampling (closed jar), the sample was thoroughly mixed, 10 gram sample were aseptically pulled from each jar and diluted with peptone water. Each sample was stomached (1 min, normal setting) plated in duplicate onto YGC agar (VWR) and MRS (VWR), and incubated at 25° C. for 5 days and 37° C. for 3 days, respectively.

pool of 4 yeast species = assay: Ranch dressing challenge study, yeast count on YGC agar; assay type: cell-based; conditions: for Cell counts on YGC-agar to determine the yeast growth: 0.1% in Ranch dressing, inoculation 500 CFU/g, 20° C.
Text: Samples of the regular ranch dressing (formula in table 24) with and without the experimental blend were produced in the Danisco Culinary Application Laboratory, Brabrand.
Each batch was split (scheme table 23) in probes of 90 gram and placed in sterile jars. 36 probes of each batch were inoculated with the desired level of yeast and 5 probes of each batch were inoculated with mould spores, respectively at a targeted inoculation rate of 500 to 1000 CFU/g.
as §1, with “incubated” for “incubated in the dark”, “ambient” for “chilled”, “(20°” for “(4°”, “(≧1.0E+05” for “(≧1.0E+06”
In total 8 strains, from Danisco's in-house Culture Collection (DCS) (Danisco A/S, Brabrand, Denmark) were employed as 1 yeast and 1 mould pool in the respective Ranch dressing. Originally, they were isolated e.g. from spoiled ketchup, mayonnaise, Salsa dressing or obtained from official culture collections such as DMSZ.
Before each experiment, a stock culture of each yeast, maintained at −86° C. in suitable broth containing glycerol 50% (v/v), was propagated through two consecutive growth cycles in suitable media (YGC-agar (VWR) pH 5.1+0.2; YM Broth (Becton, Dickinson and company) at pH 6.0±0.2 at and temperature (25° C.). The overnight cultures are diluted in saline solution to obtain working cultures. A cocktail of the yeasts was generated by adding equal cell counts of each culture into a sterile container and mixed appropriately. The yeast cocktail was diluted and inoculated into the product in order to achieve the final desired concentration. Pool counts were verified via plate count. Mould spores were prepared as follows: approx. 2 ml of sterile demineralised water was used to wash the spores off an out-grown mould cultivar (minimum 5 day old plate). This suspension is transferred to a sterile container. Pool counts were verified via plate count.
The Ranch dressing was assayed a time zero, day 3, day 7, day 14, bi-weekly thereafter until week 13 (day 90) and every 4 to 6 weeks until week 29. CFU/g was detected for 3 samples from each batch inoculated with yeast. Before each sampling (closed jar), the sample was thoroughly mixed. 10 gram sample were aseptically pulled from each jar and diluted with peptone water. Each sample was stomached (1 min, normal setting) plated in duplicate onto YGC agar (VWR), PC agar and MRS agar (VWR), and incubated at 25° C. for 5 and 7 days and 37° C. for 3 days, respectively.

[2] = Ranch dressing challenge study, pH measurement; assay type: physicochemical; conditions: 0.1%, non-inoculated sample
Text: A pH measurement of non-inoculated sample material took place at every sampling date using a Mettler Toledo Seven Easy pH meter.

In the case of `C/C=C/C=C/C(=O)[O-].[K+]` [Potassium Sorbate, potassium sorbate], the “time after which no more colonies were detected on MRS-agar” value ([1]; Salsa sauce, potassium sorbate 0.1%) is reported as 42 days, the “Cell counts on MRS-agar (native Lactic acid bacteria)” value (“Cell counts on MRS-agar” below) ([1]; day 0) is reported as 4.75E+02 and the “Cell counts on MRS-agar” value ([1]; day 2) is reported as 1.50E+03. For the same molecule, the “Cell counts on MRS-agar” value ([1]; day 5) was 1.40E+02, the “Cell counts on MRS-agar” value ([1]; day 7) was 1.30E+03 and the “Cell counts on MRS-agar” value ([1]; day 14) was 5.38E+02. The “Cell counts on MRS-agar” value ([1]; day 28) was 4.30E+01, the “Cell counts on MRS-agar” value ([1]; day 41) was <1.00E+01 and the “Cell counts on MRS-agar” value ([1]; day 55) was <1.00E+01. The “Cell counts on MRS-agar” value ([1]; day 93) was <1.00E+01, the “initial reduction of the inoculated cell load” value (pool of 4 yeast species; Ranch dressing 20° C., FP1000 D1/D2 1%, MicroGARD 200 1%, potassium sorbate 0.1%) was 2 log and the “Cell counts on YGC-agar to determine the yeast growth” value (“Cell counts on YGC-agar” for short) (pool of 4 yeast species; day 0) was 3.20E+02 CFU/g. The “Cell counts on YGC-agar” value (pool of 4 yeast species; day 3) was 1.70E+02 CFU/g, the “Cell counts on YGC-agar” value (pool of 4 yeast species; day 7) was 7.50E+01 CFU/g and the “Cell counts on YGC-agar” value (pool of 4 yeast species; day 14) was 1.00E+01 CFU/g. The “Cell counts on YGC-agar” value (pool of 4 yeast species; day 28) was 1.00E+01 CFU/g, the “Cell counts on YGC-agar” value (pool of 4 yeast species; day 42) was 1.00E+01 CFU/g and the “Cell counts on YGC-agar” value (pool of 4 yeast species; day 56) was 1.00E+01 CFU/g. The “Cell counts on YGC-agar” value (pool of 4 yeast species; day 64) was 1.00E+01 CFU/g, the “Cell counts on YGC-agar” value (pool of 4 yeast species; day 90) was 1.00E+01 CFU/g and the “Cell counts on YGC-agar” value (pool of 4 yeast species; day 157) was 1.00E+01 CFU/g. The “Cell counts on YGC-agar” value (pool of 4 yeast species; day 198) was 1.00E+01 CFU/g, the “pH development of the Ranch dressing batch” value (“pH development” below) ([2]; day 0) was 4.02 and the “pH development” value ([2]; day 3) was 4.00. For the same molecule, the “pH development” value ([2]; day 7) was 4.02, the “pH development” value ([2]; day 14) was 4.00 and the “pH development” value ([2]; day 28) was 3.94. The “pH development” value ([2]; day 42) was 3.96, the “pH development” value ([2]; day 56) was 3.96 and the “pH development” value ([2]; day 64) was 3.95. For the same molecule, the “pH development” value ([2]; day 90) was 3.96, the “pH development” value ([2]; day 157) was 3.92 and the “pH development” value ([2]; day 198) was 3.94.
